# Earlier results as cited in patent US5888536A (Chinoin Ltd., priority 1994, dated 1999).
smiles,measurement,setting,value
"C#CCN(C)[C@H](C)Cc1ccccc1 [selegilin, (-)-[N-α-dimethyl-N-(2-propynylphenylethylamine)]]",solubility in chloroform,chloroform,1 g/5 ml
same,solubility in methanol,methanol,1 g/3 ml
same,solubility in water,water,1 g/3 ml
